Experimental data published in US5994365A, “Substituted diazaanthracene compounds having pharmaceutical utility” (Diazans Limited, priority 1998, dated 1999).
Values joined by “and” are separate entries in the source; they are usually repeats but may differ in a detail not shown here. Equal entries are not always repeated.

How the values were obtained:
[1] = tested on: Coagulase negative Staph (Staneg); assay: Broth microdilution (NCCLS guidelines), MIC; assay type: cell-based, Coagulase negative staphylococci; settings: for MIC50 / MIC90 / Range of MICs: 10 strains
Description: (§1) The dimer product of Example 15 was obtained in powder form. A stock solution of 1280 mg/L of the dimer in dimethylsulfoxide (DMSO) was prepared and stored at room temperature in a foil-wrapped screw-capped tube (10 ml). Subsequent dilutions were prepared using cation-adjusted Mueller-Hinton broth (50 mg/L Mg). […] It was resuspended upon mixing each time an aliquot was taken from the solution.
(§2) Approximately 100 varied bacterial isolates were initially collected for screening, along with 9 ATCC organisms. Forty additional strains of Staphylococcus species were subsequently screened. All isolates were identified according to generally accepted lab protocol.
(§3) Broth microdilution was performed according to NCCLS guidelines. Microdilution panels were prepared using doubling dilutions of the dimer in ~250 μl plastic, 96-well trays. Inoculum suspension equal to a 0.5 McFarland standard were further diluted and added to the microdilution trays to achieve a final inoculum of 5×10^5 CFU/ml (5×10^4 CFU/well). Colony counts were performed to confirm the final inoculum, as well as its purity. Each strain was also tested in a growth control well containing only MHB for viability.
(§4) Microdilution trays were incubated at 35° C. in ambient air or 5% CO2 as appropriate for 16-20 hours. After incubation, the minimal inhibitory concentration (MIC) was defined as the lowest concentration of the dimer with no evidence of growth. Since 10 or more strains of most organisms were tested; a range of MICs was determined for each organism, as well as the concentration of the dimer that inhibited 50% of the strains (MIC50) and the concentration of the dimer that inhibited 90% of the strains (MIC90).

[2] = tested on: ATCC S. epid 14990; assay: Broth microdilution (NCCLS guidelines), MIC; assay type: cell-based; settings: for MICs: in µg/mL
Description: as §1, §2, §3, §4

[3] = tested on: Acinetobacter; assay: Broth microdilution (NCCLS guidelines), MIC; assay type: cell-based; settings: Table A, 5 strains
Description: as §1, §2, §3, §4

[4] = tested on: B. cepacia; assay: Broth microdilution (NCCLS guidelines), MIC; assay type: cell-based; settings: Table A, 5 strains
Description: as §1, §2, §3, §4

[5] = tested on: Enterobacteriaceae; assay: Broth microdilution (NCCLS guidelines), MIC; assay type: cell-based; settings: Table A, 10 strains
Description: as §1, §2, §3, §4

[6] = tested on: Vancomycin resistant Enterococcus (VRE); assay: Broth microdilution (NCCLS guidelines), MIC; assay type: cell-based; settings: Table A
Description: as §1, §2, §3, §4

[7] = tested on: Vancomycin susceptible Enterococcus (VSE); assay: Broth microdilution (NCCLS guidelines), MIC; assay type: cell-based; settings: Table A
Description: as §1, §2, §3, §4

[8] = tested on: P. aeruginosa; assay: Broth microdilution (NCCLS guidelines), MIC; assay type: cell-based, Pseudomonas aeruginosa; settings: Table A
Description: as §1, §2, §3, §4

[9] = tested on: ATCC EC 25922; assay: Broth microdilution (NCCLS guidelines), MIC; assay type: cell-based, Escherichia coli; settings: Table A
Description: as §1, §2, §3
Microdilution trays were incubated at 35° C. in ambient air or 5% CO2 as appropriate for 16-20 hours. […]

[10] = Precipitation of the dimer on dilution with Mueller-Hinton broth; assay type: physicochemical; settings: resuspended upon mixing
Description: as §1

[11] = tested on: Staphylococcus species; assay: Effect of age of the dimer solution on MIC (stability of the solution); assay type: physicochemical; settings: stored at RT in foil wrapped tube
Description: The dimer solution was two weeks old at this time. When the additional Staph strains were then retested using a freshly made solution of the dimer, the MICs were lower (see Table E). The stability of the solution stored at RT in a foil wrapped tube could be a variable contributing to the discrepancy between MICs.

For “10,10'-bis(3,6-dimethyl-5,10-dihydro-1,8-diazaanthracen-5-one) and 5,5'-bis(3,6-dimethyl-5,10-dihydro-1,8-diazaanthracen-10-one) [Example 15]”, the MIC50 ([1]; Table A) was 0.125 mg/L, the MIC90 ([1]; Table A) was 0.5 mg/L and the “Range of MICs” value ([1]; Table A) was “.0625 to 1.0 mg/L”. For the same substance, the MIC50 ([1]; Table C, solution 14 days old) was 1 mg/L, the MIC90 ([1]; Table C, solution 14 days old) was 2 mg/L and the MIC ([1]; Table D, Staneg 1) was 2 µg/mL. The MIC ([1]; Table D, Staneg 2) was 0.25 µg/mL, the MIC ([1]; Table D, Staneg 3) was 2 µg/mL and the MIC ([1]; Table D, Staneg 4) was > 16 µg/mL. The MIC ([1]; Table D, Staneg 5) was 1 µg/mL, the MIC ([1]; Table D, Staneg 6) was 1 µg/mL and the MIC ([1]; Table D, Staneg 7) was 1 µg/mL. The MIC ([1]; Table D, Staneg 8) was 1 µg/mL, the MIC50 ([1]; Table E, fresh solution) was 0.25 mg/L and the MIC90 ([1]; Table E, fresh solution) was 0.5 mg/L. The “Range of MICs” value ([1]; Table E, fresh solution, in µg/mL) was 0.0625-4, the MIC ([1]; Table F, Staneg 1) was 0.0625 µg/mL and the MIC ([1]; Table F, Staneg 4) was 4 µg/mL. For the same substance, the MIC ([1]; Table F, Staneg 7) was 0.25 µg/mL, the MIC50 ([1]; Table G) was 0.25 mg/L and the MIC90 ([1]; Table G) was “.5 mg/L”. The “Range of MICs” value ([1]; Table G) was 0.0625 to 4 mg/L, the MICs ([2]; Table C, ATCC S. epid 14990 (×2), solution 14 days old) was 0.25 and the MICs ([2]; Table E, ATCC S. epid 14990, fresh solution, * = skipped wells (second value), listed as Dimer) was 0.3125 and 0.5. The MIC ([2]; Table F, ATCC S. epid 14990) was 0.0312 µg/mL, the MIC ([2]; Table G footnote, ATCC 14990 (coag neg staph)) was 0.0312 µg/mL and the MIC50 [3] was > 64 mg/L. The MIC90 [3] was > 64 mg/L, the “Range of MICs” value [3] was > 64 mg/L and the MIC50 [4] was > 64 mg/L. The MIC90 [4] was > 64 mg/L, the “Range of MICs” value [4] was ≥ 64 mg/L and the MIC50 [5] was > 64 mg/L. The MIC90 [5] was > 64 mg/L, the “Range of MICs” value [5] was > 64 mg/L and the MIC50 ([6]; 12 strains) was 64 mg/L. The MIC90 ([6]; 12 strains) was > 64 mg/L, the “Range of MICs” value ([6]; 12 strains) was ≥ 64 mg/L and the MIC ([6]; ATCC VRE 51299) was > 64 mg/L. For the same substance, the MIC50 ([7]; 12 strains) was > 64 mg/L, the MIC90 ([7]; 12 strains) was > 64 mg/L and the MIC ([7]; ATCC VSE 29212) was > 64 mg/L. The MIC50 ([8]; 10 strains) was > 64 mg/L, the MIC90 ([8]; 10 strains) was > 64 mg/L and the “Range of MICs” value ([8]; 10 strains) was ≥ 64 mg/L. The MIC ([8]; ATCC PA 27853 (×2)) was > 64 mg/L, the MIC [9] was > 64 mg/L and the precipitation ([10]; at 128 mg/L in MHB) was “Some precipitation occurred at 128 mg/L”. The “precipitation upon dilution with MH broth” value ([10]; from 1280 mg/L DMSO stock, after sitting for short periods) was “some precipitation upon dilution with MH broth” and the “MICs with two weeks old dimer solution vs. original screen” value [11] was “MICs appeared to be significantly higher”.
